Data as given in patent US20170107207A1, “AMINOPYRAZOLONE DERIVATIVE” (DAIICHI SANKYO COMPANY, LIMITED, priority 2014, published 2017).
pIC50: −log10 of the molar value.

What was measured:
ACHN = test: Cell growth inhibition test, ACHN; assay type: cell-based; conditions: Homo sapiens, 72 h, Kidney cancer, 3 days, CellTiter-Glo
Method: (§1) A cell growth inhibition test was carried out by treating a cultured cancer cell line with a test compound for a given period and then counting the number of viable cells by CellTiter-Glo Luminescent Cell Viability Assay (manufactured by Promega Corp.).
(§2) The following cells were inoculated to a 384-well plate containing the compound prepared in advance at predetermined concentrations. […]
(§3) The cells thus inoculated were cultured at 37° C. for 3 days under 5% CO2. […] Then, luminescence intensity was measured using a plate reader.
(§4) The number of viable cells and luminescence intensity have been confirmed to correlate with each other. Therefore, the rate of cell growth was calculated according to the following expression: Rate of cell growth (T/C %) of a test compound-supplemented well=100×[(B−C)/(A−C)] wherein A represents the luminescence intensity (final culture date) of a test compound-free well; B represents the luminescence intensity (final culture date) of a test compound-containing well; and C represents the luminescence intensity (day of cell inoculation) of a well at the start of contact of the cells with the test compound.
(§5) T/C % at the concentration of each of the serially diluted test compounds was determined. […]

TIP48/TIP49 complex = biological target: T1, TIP48/TIP49 complex (Homo sapiens, UniProt Q9Y230+Q9Y265); test: ATPase assay of TIP48/TIP49 complex (ADP-Glo); assay type: biochemical; conditions: concentration at which the ATPase activity was inhibited by 50%
T1 construct: made in house; host or cells: E. coli
T1 sequence (Q9Y230 whole entry): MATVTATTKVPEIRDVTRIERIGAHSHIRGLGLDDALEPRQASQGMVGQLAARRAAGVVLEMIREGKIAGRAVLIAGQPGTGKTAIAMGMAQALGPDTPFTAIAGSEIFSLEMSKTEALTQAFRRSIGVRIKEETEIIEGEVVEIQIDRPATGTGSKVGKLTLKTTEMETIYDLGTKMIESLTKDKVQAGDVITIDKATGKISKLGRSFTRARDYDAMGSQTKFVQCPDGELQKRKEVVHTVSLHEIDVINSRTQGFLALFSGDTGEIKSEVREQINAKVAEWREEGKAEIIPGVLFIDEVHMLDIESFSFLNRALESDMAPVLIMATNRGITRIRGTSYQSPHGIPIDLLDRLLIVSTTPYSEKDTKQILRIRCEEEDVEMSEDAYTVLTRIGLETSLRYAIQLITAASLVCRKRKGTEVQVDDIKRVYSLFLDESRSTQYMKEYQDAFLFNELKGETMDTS
T1 sequence (Q9Y265 whole entry): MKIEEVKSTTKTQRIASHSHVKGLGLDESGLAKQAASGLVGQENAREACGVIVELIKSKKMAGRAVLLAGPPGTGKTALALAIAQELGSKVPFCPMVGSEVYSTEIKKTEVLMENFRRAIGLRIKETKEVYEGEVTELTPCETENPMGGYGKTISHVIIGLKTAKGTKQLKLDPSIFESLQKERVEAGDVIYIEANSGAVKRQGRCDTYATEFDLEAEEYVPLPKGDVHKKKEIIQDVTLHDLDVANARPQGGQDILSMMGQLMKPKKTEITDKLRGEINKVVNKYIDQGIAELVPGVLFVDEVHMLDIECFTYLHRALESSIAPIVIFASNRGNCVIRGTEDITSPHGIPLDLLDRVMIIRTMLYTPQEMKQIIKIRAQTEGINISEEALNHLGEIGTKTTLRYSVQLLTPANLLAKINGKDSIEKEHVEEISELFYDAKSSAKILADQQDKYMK
Procedure, shortened: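 Compound was tested over 10 four-fold concentrations, 200 μM down to 0.0007 μM at 2% DMSO, against E. coli-derived human rTIP48/rTIP49 for 1.5 h at room temperature, pH 7.5 with ATP. ATP hydrolysis was read as ADP-Glo luminescence, normalised to complex-only and no-complex wells, then fitted to dose-response curves.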

PC-3 = test: Cell growth inhibition test, PC-3; assay type: cell-based; conditions: Homo sapiens, 72 h; PC-3, Prostate cancer, 3 days, CellTiter-Glo
Method: as §1, §2, §3, §4, §5

MCF7 = test: Cell growth inhibition test, MCF7; assay type: cell-based; conditions: Homo sapiens, 72 h; MCF7, Breast cancer, 3 days, CellTiter-Glo
Method: as §1, §2, §3, §4, §5

| SMILES | GI50 (ACHN) | pIC50 (TIP48/TIP49 complex) | GI50 (PC-3) | GI50 (MCF7) |
| --- | --- | --- | --- | --- |
| CCOc1ccc(Cl)cc1C(=O)NCC(C)(C)CC(=O)Nc1c([C@H](C)CN(C)C)n(C)n(-c2ccccc2)c1=O [Example 68, 5-Chloro-N-[4-({5-[(1R)-2-(dimethylamino)-1-methylethyl]-1-methyl-3-oxo-2-phenyl-2,3-dihydro-1H-pyrazol-4-yl}amino)-2,2-dimethyl-4-oxobutyl]-2-ethoxybenzamide] | 1.8 µM | 7.15 | 1.4 µM | 0.53 µM |
| CCOc1cc(F)c(Cl)cc1C(=O)NCC(C)(C)CC(=O)Nc1c(COC)n(C)n(-c2ccccc2)c1=O [Example 113, 5-Chloro-2-ethoxy-4-fluoro-N-(4-{[5-(methoxymethyl)-1-methyl-3-oxo-2-phenyl-2,3-dihydro-1H-pyrazol-4-yl]amino}-2,2-dimethyl-4-oxobutyl)benzamide] | 0.97 µM | 7.41 | 1.4 µM | 0.75 µM |
| CCOc1ncc(Cl)cc1C(=O)NCC(C)(C)CC(=O)Nc1c([C@H](C)CN(C)C)n(C)n(-c2ccccc2)c1=O [Example 73, 5-Chloro-N-[4-({5-[(1R)-2-(dimethylamino)-1-methylethyl]-1-methyl-3-oxo-2-phenyl-2,3-dihydro-1H-pyrazol-4-yl}amino)-2,2-dimethyl-4-oxobutyl]-2-ethoxypyridine-3-carboxamide] | 2.5 µM | 7.32 | 1.5 µM | 0.98 µM |
